Activity calls are given as the source filed them.
What was measured:
[1] = target: Lysosomal acid glucosylceramidase (Homo sapiens, UniProt P04062); assay: Dose response cell-based high throughput screening assay to identify enhancers of beta-glucosidase activity. [Related pubchem assays: 784 ]; assay type: functional
[2] = target: Polyadenylate-binding protein 1 (Homo sapiens, UniProt P11940); assay: blockers of PABP interaction with poly(A) – biochemical, fluorescence polarization, […] (AID 2014)
[3] = target: Eukaryotic translation initiation factor 4H (Homo sapiens, UniProt Q15056); assay: eIF4H binding inhibition – biochemical, uHTS, fluorescence polarization, translation initiation inhibitor project, primary screen (AID 2012)
Procathepsin L = Procathepsin L (Homo sapiens, UniProt P07711)
Procathepsin L, sequence (P07711 whole entry): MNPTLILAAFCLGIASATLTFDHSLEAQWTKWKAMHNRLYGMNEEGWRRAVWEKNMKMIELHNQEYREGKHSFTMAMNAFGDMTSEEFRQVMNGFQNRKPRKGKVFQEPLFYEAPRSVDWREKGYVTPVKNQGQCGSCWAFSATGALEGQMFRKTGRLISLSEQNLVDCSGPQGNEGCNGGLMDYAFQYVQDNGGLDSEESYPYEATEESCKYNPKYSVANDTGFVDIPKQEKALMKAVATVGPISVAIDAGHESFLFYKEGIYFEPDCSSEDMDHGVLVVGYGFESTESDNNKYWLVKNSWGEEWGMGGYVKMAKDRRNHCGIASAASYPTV

Aspartyl aminopeptidase = Aspartyl aminopeptidase (Plasmodium falciparum 3D7, UniProt Q8I2J3)
Aspartyl aminopeptidase, sequence (Q8I2J3 whole entry): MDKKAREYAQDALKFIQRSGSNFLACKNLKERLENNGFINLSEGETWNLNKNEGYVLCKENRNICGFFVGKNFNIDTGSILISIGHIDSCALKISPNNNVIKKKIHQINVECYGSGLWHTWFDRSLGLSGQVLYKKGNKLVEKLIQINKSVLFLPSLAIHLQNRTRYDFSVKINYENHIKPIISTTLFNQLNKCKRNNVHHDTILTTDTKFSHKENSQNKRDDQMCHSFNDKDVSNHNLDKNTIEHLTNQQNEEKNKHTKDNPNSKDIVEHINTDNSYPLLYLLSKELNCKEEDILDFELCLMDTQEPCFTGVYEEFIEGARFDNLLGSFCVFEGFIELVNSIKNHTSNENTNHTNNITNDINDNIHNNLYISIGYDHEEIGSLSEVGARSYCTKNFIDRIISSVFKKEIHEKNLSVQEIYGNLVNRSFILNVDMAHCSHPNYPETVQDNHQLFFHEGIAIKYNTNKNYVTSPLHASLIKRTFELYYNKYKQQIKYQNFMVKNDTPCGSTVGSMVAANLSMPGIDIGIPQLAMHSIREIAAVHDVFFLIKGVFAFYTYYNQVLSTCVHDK

[4] = target: T1, Voltage-gated N-type calcium channel alpha-1B subunit/Amyloid beta A4 precursor protein-binding family A member 1 (Homo sapiens, UniProt Q00975+Q02410); assay: disruptors of Mint-PDZ/N-type channel peptide interaction – biochemical, HTRF, SAR follow-up (AID 2489); assay type: functional
T1 sequence (Q00975 whole entry): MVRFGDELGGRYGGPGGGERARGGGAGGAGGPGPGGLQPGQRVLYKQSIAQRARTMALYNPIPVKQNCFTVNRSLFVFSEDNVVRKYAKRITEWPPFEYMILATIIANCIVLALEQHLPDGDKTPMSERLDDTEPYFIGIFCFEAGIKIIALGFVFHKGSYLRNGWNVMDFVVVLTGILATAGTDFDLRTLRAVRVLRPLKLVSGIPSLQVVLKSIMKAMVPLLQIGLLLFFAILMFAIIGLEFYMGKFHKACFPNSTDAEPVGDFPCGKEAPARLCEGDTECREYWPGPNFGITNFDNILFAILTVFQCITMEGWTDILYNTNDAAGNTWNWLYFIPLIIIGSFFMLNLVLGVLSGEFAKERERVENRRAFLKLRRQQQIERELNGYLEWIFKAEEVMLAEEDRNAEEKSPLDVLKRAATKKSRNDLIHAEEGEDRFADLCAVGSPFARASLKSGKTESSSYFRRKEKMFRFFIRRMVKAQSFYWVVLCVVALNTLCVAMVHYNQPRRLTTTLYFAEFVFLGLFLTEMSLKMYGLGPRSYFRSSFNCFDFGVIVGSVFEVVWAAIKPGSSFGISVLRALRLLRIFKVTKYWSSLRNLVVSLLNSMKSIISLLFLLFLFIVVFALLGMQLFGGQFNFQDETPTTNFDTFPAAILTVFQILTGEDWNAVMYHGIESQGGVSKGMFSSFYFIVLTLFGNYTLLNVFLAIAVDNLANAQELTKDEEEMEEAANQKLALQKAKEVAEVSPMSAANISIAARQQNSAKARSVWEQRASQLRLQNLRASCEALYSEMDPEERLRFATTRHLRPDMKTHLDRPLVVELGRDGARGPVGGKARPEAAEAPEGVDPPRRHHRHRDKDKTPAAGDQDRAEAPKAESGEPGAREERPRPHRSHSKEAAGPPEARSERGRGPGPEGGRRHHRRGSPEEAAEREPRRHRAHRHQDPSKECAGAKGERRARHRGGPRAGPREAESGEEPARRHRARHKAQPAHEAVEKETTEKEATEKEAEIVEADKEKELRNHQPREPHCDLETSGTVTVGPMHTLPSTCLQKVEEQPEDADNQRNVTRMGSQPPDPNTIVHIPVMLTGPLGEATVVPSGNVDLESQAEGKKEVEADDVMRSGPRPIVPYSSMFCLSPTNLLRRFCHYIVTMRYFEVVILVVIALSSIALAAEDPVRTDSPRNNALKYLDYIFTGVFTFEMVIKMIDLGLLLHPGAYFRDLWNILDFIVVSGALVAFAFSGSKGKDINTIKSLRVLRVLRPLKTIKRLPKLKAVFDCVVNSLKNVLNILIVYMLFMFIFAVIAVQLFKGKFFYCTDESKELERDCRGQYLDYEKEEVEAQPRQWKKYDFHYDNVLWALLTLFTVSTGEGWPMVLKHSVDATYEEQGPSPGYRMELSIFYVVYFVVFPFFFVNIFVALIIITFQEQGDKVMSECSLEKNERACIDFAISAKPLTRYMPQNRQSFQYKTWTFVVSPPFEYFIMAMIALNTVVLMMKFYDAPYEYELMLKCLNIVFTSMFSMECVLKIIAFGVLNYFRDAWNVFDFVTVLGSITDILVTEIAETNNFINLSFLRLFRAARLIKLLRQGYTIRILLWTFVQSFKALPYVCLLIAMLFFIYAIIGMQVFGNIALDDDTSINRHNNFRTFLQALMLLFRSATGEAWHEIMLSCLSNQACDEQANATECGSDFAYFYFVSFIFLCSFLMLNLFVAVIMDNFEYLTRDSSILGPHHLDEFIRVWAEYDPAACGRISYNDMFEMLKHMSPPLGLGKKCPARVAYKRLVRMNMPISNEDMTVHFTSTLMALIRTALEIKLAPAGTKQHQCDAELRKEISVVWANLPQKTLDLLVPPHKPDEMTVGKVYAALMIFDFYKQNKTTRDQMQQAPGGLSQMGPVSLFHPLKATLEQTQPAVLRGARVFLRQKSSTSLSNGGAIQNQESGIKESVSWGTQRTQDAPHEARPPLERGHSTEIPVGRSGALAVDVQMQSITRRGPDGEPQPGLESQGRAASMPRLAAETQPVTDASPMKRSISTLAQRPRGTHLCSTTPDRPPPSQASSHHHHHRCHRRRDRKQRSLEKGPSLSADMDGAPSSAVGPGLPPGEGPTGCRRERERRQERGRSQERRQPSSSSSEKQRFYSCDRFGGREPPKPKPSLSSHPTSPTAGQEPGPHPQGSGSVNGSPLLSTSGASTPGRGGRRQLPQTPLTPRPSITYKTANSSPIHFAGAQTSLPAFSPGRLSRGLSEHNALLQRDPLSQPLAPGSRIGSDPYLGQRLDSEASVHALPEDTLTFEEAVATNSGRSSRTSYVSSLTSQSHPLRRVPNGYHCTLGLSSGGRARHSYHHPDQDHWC
T1 sequence (Q02410 whole entry): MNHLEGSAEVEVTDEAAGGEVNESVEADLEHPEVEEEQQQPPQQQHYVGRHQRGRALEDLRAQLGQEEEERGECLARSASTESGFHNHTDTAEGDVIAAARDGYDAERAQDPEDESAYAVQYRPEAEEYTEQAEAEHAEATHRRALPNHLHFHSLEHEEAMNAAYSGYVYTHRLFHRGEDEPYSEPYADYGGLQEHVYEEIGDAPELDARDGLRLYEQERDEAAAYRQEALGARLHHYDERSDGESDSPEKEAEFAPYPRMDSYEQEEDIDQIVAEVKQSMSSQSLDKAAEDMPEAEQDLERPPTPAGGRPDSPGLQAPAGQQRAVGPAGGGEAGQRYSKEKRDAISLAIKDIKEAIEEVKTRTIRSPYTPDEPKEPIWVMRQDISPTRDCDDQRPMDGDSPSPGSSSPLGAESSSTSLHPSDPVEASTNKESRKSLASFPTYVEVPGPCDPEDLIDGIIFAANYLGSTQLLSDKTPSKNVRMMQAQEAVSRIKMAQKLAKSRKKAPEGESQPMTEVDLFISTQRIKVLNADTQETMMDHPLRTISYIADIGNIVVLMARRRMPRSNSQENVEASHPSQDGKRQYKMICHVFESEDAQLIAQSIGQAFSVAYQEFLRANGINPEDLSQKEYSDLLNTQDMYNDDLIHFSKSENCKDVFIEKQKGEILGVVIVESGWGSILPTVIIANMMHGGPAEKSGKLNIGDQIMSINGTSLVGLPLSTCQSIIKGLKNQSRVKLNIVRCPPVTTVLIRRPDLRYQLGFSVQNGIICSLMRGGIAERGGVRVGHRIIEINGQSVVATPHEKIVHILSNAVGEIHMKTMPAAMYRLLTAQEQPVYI

[5] = target: T1, Voltage-gated N-type calcium channel alpha-1B subunit/Amyloid beta A4 precursor protein-binding family A member 1; assay: disruptors of Mint-PDZ/N-type channel peptide interaction – biochemical, HTRF, set 2, SAR follow-up (AID 434980); assay type: functional
Nonstructural protein 1 = Nonstructural protein 1 (Influenza A virus, UniProt Q194T2); assay type: functional, Influenza A virus (A/California/07/2009(H1N1))
[6] = target: Cystic fibrosis transmembrane conductance regulator/Golgi-associated PDZ and coiled-coil motif-containing protein (Homo sapiens, UniProt P13569+Q9HD26); assay: potency against CAL PDZ-peptide interaction – biochemical, fluorescence polarization, Cerulean-tagged CAL PDZ, cherry-picks, dose response (AID 504773)
[7] = target: Mitochondrial peptide methionine sulfoxide reductase (Bos taurus, UniProt P54149); assay: Absorbance-based biochemical high throughput dose response assay for activators of Methionine sulfoxide reductase A (MsrA).; assay type: functional
[8] = viability loss in HeLa cells – cytotoxicity control for MgcRacGAP inhibitor project, dose response (AID 624300); assay type: functional
[9] = target: Glucose-6-phosphate 1-dehydrogenase (Homo sapiens, UniProt P11413); assay: inhibition of Homo sapiens G6PD, dose series – biochemical, fluorescence, selectivity assay for P. falciparum G6PD inhibitor project, dose response (AID 504792); assay type: functional
Glucose-6-phosphate 1-dehydrogenase, sequence (P11413 whole entry): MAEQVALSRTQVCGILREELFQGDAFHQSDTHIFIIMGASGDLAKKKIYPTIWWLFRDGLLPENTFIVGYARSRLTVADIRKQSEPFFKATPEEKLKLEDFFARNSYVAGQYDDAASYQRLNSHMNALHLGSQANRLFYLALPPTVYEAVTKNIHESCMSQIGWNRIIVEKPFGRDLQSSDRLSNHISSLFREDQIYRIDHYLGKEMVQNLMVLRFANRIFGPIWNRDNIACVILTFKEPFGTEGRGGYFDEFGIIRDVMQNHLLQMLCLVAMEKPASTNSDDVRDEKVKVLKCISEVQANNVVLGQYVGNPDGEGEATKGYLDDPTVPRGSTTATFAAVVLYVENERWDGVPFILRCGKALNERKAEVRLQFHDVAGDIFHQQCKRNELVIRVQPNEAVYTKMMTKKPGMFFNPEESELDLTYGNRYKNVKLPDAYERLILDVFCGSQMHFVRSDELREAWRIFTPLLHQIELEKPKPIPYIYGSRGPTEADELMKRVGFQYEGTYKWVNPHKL

[10] = target: T2, Rac GTPase-activating protein 1 (Homo sapiens, UniProt Q9H0H5); assay: blockers of MgcRacGAP-driven Rac1 GTP hydrolysis – biochemical, ADP Hunter fluorescence, primary and confirmatory, confirmation (AID 624330); assay type: functional
T2 sequence (Q9H0H5 whole entry): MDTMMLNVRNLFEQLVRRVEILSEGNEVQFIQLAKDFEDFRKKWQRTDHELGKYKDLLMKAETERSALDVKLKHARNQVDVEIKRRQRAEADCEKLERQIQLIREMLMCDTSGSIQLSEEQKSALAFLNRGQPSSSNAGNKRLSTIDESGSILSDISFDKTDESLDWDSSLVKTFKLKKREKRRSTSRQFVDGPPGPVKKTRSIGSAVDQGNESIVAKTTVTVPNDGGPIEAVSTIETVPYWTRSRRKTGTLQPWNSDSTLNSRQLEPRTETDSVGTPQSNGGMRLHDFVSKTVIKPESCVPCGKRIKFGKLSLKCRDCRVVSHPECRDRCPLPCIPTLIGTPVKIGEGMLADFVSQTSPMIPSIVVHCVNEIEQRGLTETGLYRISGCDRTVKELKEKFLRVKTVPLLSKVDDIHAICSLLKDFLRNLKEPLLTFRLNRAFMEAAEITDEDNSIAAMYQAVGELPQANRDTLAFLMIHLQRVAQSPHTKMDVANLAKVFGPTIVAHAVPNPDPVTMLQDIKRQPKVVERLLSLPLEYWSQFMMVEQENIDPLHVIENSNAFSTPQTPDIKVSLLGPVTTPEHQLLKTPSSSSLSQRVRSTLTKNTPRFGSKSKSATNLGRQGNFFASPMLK

[11] = target: T3, Kappa-type opioid receptor (Homo sapiens, UniProt P41145); assay: SAR analysis of small molecule agonists of the kappa opioid receptor via a luminescent beta-arrestin assay - Set 2. [Related pubchem assays (depositor defined):AID1777, AID1785, AID1786, AID1966, AID2133, AID2136, AID2284, AID449737]; assay type: functional
T3 sequence (P41145 whole entry): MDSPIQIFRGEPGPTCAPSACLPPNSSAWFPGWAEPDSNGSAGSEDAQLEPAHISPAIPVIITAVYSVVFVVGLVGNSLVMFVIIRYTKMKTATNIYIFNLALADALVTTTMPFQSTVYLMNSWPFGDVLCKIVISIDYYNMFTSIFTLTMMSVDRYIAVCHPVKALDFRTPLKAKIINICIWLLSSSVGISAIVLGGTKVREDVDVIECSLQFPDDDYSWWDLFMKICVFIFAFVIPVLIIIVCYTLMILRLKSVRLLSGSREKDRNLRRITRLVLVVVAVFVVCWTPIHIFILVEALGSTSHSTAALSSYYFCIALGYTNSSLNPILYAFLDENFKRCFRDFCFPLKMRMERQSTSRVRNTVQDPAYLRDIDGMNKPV

[12] = target: T3, Kappa-type opioid receptor; assay: SAR analysis of Antagonists of the Kappa Opioid Receptor (KOR) using an Image-Based Assay - Set 2. [Related pubchem assays (depositor defined):AID1777, AID1785, AID1786, AID1966, AID2133, AID2136, AID2284, AID2285, AID2348]; assay type: functional
[13] = target: Delta-type opioid receptor (Homo sapiens, UniProt P41143); assay: SAR Analysis of Antagonists of the DOR Receptor using an Image-Based Assay - Set 2. [Related pubchem assays (depositor defined):AID1777, AID1785, AID1786, AID1966, AID2133, AID2136, AID2284, AID2285, AID2357]; assay type: functional
[14] = target: T4, Small ubiquitin-related modifier 1 (Homo sapiens, UniProt P63165); assay: SUMO1 protein-protein binding blockers, potency – biochemical, FRET, dose response (AID 624383); assay type: functional; settings: read-out: IC50_Mean
T4 sequence (P63165 whole entry): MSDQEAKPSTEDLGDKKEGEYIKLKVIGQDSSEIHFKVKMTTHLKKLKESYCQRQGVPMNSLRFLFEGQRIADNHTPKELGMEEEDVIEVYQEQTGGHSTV

[15] = Luminescence Cell Based Dose Confirmation HTS to Identify Activators of 5'UTR Stem-Loop Driven Alpha-Synuclein mRNA Translation in H4 Neuroglioblastoma Cells. [Related pubchem assays (depositor defined):AID1813, AID1829]; assay type: functional; settings: Homo sapiens
[16] = target: T4, Small ubiquitin-related modifier 1; assay: SUMO1 protein interaction blockers, potency – biochemical, fluorescence polarization, uHTS hits, dose response (AID 624382); assay type: functional; settings: read-out: IC50_Mean

With CCOC(=O)C1(Cc2ccc(O)cc2)NC(c2ccccc2F)C2C(=O)N(C)C(=O)C21 (centres undefined) as the molecule, how does the EC50 [1] read?
Its EC50 is > 50 µM (not active).

Which results are given for COC(=O)c1c(NC(=O)/C=C/c2ccco2)sc2c1CCC2?
IC50 [2]: > 100 µM (inactive); IC50 [3]: 50.4 µM (active)

With COC(=O)CN(n1cnnc1)S(=O)(=O)c1ccccc1 as the molecule, how does the IC50 (Procathepsin L) read?
Its IC50 is > 59.6 µM (not active).

What about the IC50 (Aspartyl aminopeptidase) of the same molecule?
The IC50 was 0.497 µM (active).

With COc1ccccc1CCNC(=O)c1cc(-c2ccco2)nc2ccccc12 as the molecule, how does the IC50 [4] read?
The IC50 was > 56.8 µM (inactive).

What about the IC50 [5] of the same molecule?
The IC50 was 25.8 µM (active).

For CN(C)c1ccc(C=c2c3cc(O)ccc3n3c2cc(-c2ccccc2)[n+]3C)cc1, which IC50 (Nonstructural protein 1) is on record?
Its IC50 is 3.76 µM (active).

What about the AC50 [6] of the same molecule?
The AC50 was 44.6 µM (active).

And the EC50 [7]?
The EC50 was > 104 µM (inactive).

What about the CC50 [8] of the same molecule?
The CC50 was 50.7 µM (active).

What about the IC50 [9] of the same molecule?
Its IC50 is > 80 µM (inactive).

What about the IC50 [10] of the same molecule?
Its IC50 is 20.1 µM (active).

Which EC50 [11] does the source give for CC[C@@](C)(C(=O)NC1CCCCC1)N(Cc1ccco1)C(=O)c1ccccn1 here?
Its EC50 is 0.128 µM (active).

What about the IC50 [12] of the same molecule?
Its IC50 is > 32 µM (inactive).

What about the IC50 [13] of the same molecule?
The IC50 was > 32 µM (inactive).

Which results are given for Fc1ccc(Nc2nnc(-c3ccncc3)s2)cc1Cl?
IC50 [14]: 100 µM (inactive); EC50 [15]: 12 µM (active); IC50 [16]: > 66.6 µM (inactive)

Reference: ChEMBL document CHEMBL1201862, “PubChem BioAssay data set” (2004)
